# In the OligoGym collection:
# After the bases stand the sugars from the 5' end (letter, count) and the backbone: PS all phosphorothioate, else s phosphorothioate and o phosphodiester by linkage. Methylation of C is not given here. e = 2'-O-(2-methoxyethyl) (MOE); l = locked nucleic acid (LNA); k = constrained ethyl (cEt); d = 2'-deoxy (DNA)
# Experiments:
# APOL1 = settings: ASO, A431, 2 µM
# SNHG14 = settings: ASO
# [1] = Mouse Primary Neuronal Cell, 0.005 µM
Sequence,"target mRNA inhibition (SNHG14; Human Neuronal Cell, 0.2 µM) [%]","target mRNA inhibition (SNHG14; Human Neuronal Cell, 1 µM) [%]","target mRNA inhibition (SNHG14; Human Neuronal Cell, 7.5 µM) [%]",further results
"GCTTTAAACTCAGGTG (sugars kdddddkekekddddd, PS)",,,,target mRNA inhibition (APOL1): 92%
"GTTCTAACTCTTGGGC (sugars kekddddeekkddddd, PS)",,,,target mRNA inhibition (APOL1): 86%
"GTTCAAAAGCAGCATT (sugars k2 d4 e3 k2 d5, PS)",,,,target mRNA inhibition (APOL1): 86%
"GAACGCAATGCTGACT (sugars kkkddddkekekdddd, PS)",,,,target mRNA inhibition (APOL1): 48%
"GTTCTAACTCTTGGGC (sugars kkkddddkdkdkdddd, PS)",,,,target mRNA inhibition (APOL1): 73%
"TTTGTAAGTGCAACCA (sugars k3 d4 k3 e1 d5, PS)",,,,target mRNA inhibition (APOL1): 56%
"TTGTAAGTGCAACCAA (sugars kkdddddkekeddddd, PS)",,,,target mRNA inhibition (APOL1): 81%
"ATTCTATTAGAGGGCT (sugars kkdddddkekeddddd, PS)",,,,target mRNA inhibition (APOL1): 78%
"CAACACATCATTGGGT (sugars k2 d4 e3 k2 d5, PS)",,,,target mRNA inhibition (APOL1): 80%
"TTTATACCTTTCTTTAAC (sugars l2 d12 l4, PS)",4,21,,
"TACTCTGCAATACACCA (sugars ldlddddddddddldll, PS)",,,64,
"GTTTCCATCTACTATTAAT (sugars ldldddddddddlldddll, PS)",,,51,
"TTACCTACATCTCATACT (sugars l2 d12 l4, PS)",-6,-7,,"target mRNA inhibition (SNHG14; Human Neuronal Cell, 5 µM): 16%; target mRNA inhibition (SNHG14; [1]): 95.6%"
"TACTCTGCAATACACC (sugars l2 d10 l4, PS)",50,55,,
"CATTCTATCTGCCAAA (sugars l2 d10 l4, PS)",55,64,,
"CTCTACAACAGTCCCA (sugars l3 d11 l2, PS)",53,51,,
"TTATTTCCATTTATTTTCA (sugars llddlddddddddldldll, PS)",,,66,
"AAGATCATTCTCAACA (sugars l4 d10 l2, PS)",60,67,,
"TATTCTCAATTGCACTT (sugars l4 d11 l2, PS)",46,61,,
"CTAACTGTTTCTCAATT (sugars l3 d11 l3, PS)",29,32,,

Sequence,"target mRNA inhibition (SNHG14; Human Neuronal Cell, 0.2 µM) [%]","target mRNA inhibition (SNHG14; Human Neuronal Cell, 1 µM) [%]","target mRNA inhibition (SNHG14; Human Neuronal Cell, 7.5 µM) [%]",further results
"TTATAGCCATTCTATCT (sugars l2 d2 l1 d10 l2, PS)",,,64,
"ATCATTCTCAACAATTA (sugars l4 d7 l1 d1 l4, PS)",,,53,
"ACTGTTTATACCCTTTC (sugars l2 d10 l1 d2 l2, PS)",,,60,
"GCACATTCTTTCTATACC (sugars ldldlldddddddlddll, PS)",,,54,
"ATTTACACTTAATTATACTT (sugars ldlllldddddddldlddll, PS)",,,45,
"TTATAGCCATTCTATCT (sugars l1 d11 l2 d1 l2, PS)",,,40,
"TTACCTACATCTCATAC (sugars l2 d13 l2, PS)",1,-8,,"target mRNA inhibition (SNHG14; Human Neuronal Cell, 5 µM): 19%; target mRNA inhibition (SNHG14; [1]): 79%"
"TCTTTCCATTTATTTCCAT (sugars l2 d13 l1 d1 l2, PS)",,,42,
"TCTTTCCATTTATTTCCATT (sugars l2 d14 l1 d1 l2, PS)",,,46,
"CTACATCTCATACTTGC (sugars l3 d11 l3, PS)",-4,-27,,"target mRNA inhibition (SNHG14; Human Neuronal Cell, 5 µM): 1%; target mRNA inhibition (SNHG14; [1]): 94.6%"
"CTAATCCTATTCCAAC (sugars l2 d10 l4, PS)",33,49,,
"CTTTCCATTTATTTCCATT (sugars l1 d3 l1 d11 l3, PS)",,,58,
"CCTACATCTCATACTT (sugars l3 d10 l3, PS)",-11,3,,"target mRNA inhibition (SNHG14; Human Neuronal Cell, 5 µM): 13%; target mRNA inhibition (SNHG14; [1]): 93.4%"
"ACCACTGATTTCCTTA (sugars l2 d10 l4, PS)",50,63,,
"AAAATCTCAACTACCATTT (sugars lddddlddddddlllldll, PS)",,,45,
"AATTTTTTTCTTACTATCTT (sugars ldllddddddddddllddll, PS)",,,44,
"AAAATCTCAACTACCATTT (sugars ldlldlddddddddlldll, PS)",,,30,
"TTTATCAATATCTTCTCAC (sugars lldldlddddddllddlll, PS)",,,58,
"AAATTATTTATACACCATCA (sugars ldlllddddddddlddllll, PS)",,,68,
"TTTATCTCATGACCAC (sugars l2 d10 l4, PS)",53,63,,
